Laboratory results from patent US5527703A (Merck & Co., Inc., priority 1994, dated 1996).
“Also recorded” adds a separate entry of the source. Blank lines part the entries; values can stand above or below the molecule they belong to.

Experiments:
[1] = molecular target: T1, GluCl α&β (Caenorhabditis elegans, UniProt G5EBR3+Q17328); experiment: Antagonist block of ligand-activated current in oocytes injected with GluClα and GluClβ RNA; assay type: cell-based, C. elegans; settings: for inhibition at 100 µM: read-out: % Block; for % Block: blocker 100 μM
T1 construct: the full-length open reading frame of the GluCl cDNA encoding the GluClα (52,550 kDa) and GluClβ (49,900kDa) subunits; expressed in transfected cells; host or cells: Xenopus laevis oocytes injected with in vitro RNA
T1 sequence (G5EBR3 21-461): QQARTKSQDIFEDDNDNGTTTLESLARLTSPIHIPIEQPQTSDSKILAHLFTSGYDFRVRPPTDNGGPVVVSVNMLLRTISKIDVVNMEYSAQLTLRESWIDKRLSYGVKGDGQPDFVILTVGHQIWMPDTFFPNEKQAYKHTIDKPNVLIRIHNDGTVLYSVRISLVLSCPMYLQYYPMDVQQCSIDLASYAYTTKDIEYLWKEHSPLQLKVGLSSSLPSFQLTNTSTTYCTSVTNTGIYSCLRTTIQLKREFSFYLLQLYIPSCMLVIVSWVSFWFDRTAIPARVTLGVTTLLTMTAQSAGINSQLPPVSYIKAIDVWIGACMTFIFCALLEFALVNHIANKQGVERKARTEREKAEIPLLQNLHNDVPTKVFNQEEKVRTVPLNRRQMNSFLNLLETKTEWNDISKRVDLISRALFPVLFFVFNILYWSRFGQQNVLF
T1 sequence (Q17328 23-434): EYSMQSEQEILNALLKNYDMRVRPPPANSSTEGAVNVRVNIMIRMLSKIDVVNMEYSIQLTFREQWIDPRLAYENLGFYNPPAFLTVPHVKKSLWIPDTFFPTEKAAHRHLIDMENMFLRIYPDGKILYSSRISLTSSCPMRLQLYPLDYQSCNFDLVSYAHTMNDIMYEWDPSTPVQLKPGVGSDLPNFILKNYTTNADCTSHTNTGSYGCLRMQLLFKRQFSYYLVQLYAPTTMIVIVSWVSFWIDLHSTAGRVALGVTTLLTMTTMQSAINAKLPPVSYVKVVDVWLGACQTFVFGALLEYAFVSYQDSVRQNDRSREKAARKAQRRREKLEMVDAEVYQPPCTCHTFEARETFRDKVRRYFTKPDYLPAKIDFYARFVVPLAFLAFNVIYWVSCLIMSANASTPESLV
Method: (§1) Xenopus laevis oocytes were prepared and injected using standard methods previously described and known in the art [Arena, J. P., Liu. K. K., Paress, P. S. & Cully. D. F. Mol. Pharmacol. 40, 368-374 (1991 ); Arena, J. P., Liu, K. K., Paress, P. S., Schaeffer, J. M. & Cully, D. F. Mol. Brain Res. 15, 339-348 (1992)]. Adult female Xenopus laevis were anesthetized with 0.17% tricaine methanesulfonate and the ovaries were surgically removed and placed in a dish consisting of (mM): NaCl 1 82.5, KCl 2. MgCl2 1, CaCl2 1.8, HEPES 5 adjusted to pH 7.5 with NaOH (OR-2). Ovarian lobes were broken open, rinsed several times, and gently shaken in OR-2 containing 0.2% collagenase (Sigma, Type 1A) for 2-5 hours. When approximately 50% of the follicular layers were removed, Stage V and VI oocytes were selected and placed in media consisting of (mM): NaCl 86, KCl 2, MgCl2 1, CaCl2 1.8, HEPES 5, Na pyruvate 2.5, theophylline 0.5, gentamicin 0.1 adjusted to pH 7.5 with NaOH (ND-96) for 24-48 hours before injection. Oocytes were injected with 50-70 nl of poly(A^+) RNA (1 mg/ml) or 50 nl of GluClα (0.1-100 ng) and/or GluClβ (0.1-100 ng). Control oocytes were injected with 50 nl of water. Oocytes were incubated for 2-10 days in ND-96 before recording. Incubations and collagenase digestion were carried out at 18° C.
(§2) Recordings were made at room temperature 2-10 days after injection. Unless otherwise indicated recordings were made in standard frog saline consisting of (mM): NaCl 115, KCl 2, MgCl2 1, CaCl2 1.8, HEPES 10 adjusted to pH 7.5 with NaOH. Oocytes were voltage-clamped using a standard two microelectrode amplifier (Dagan 8500 or TEV-200, Minneapolis,Minn.). Pipettes were filled with 3M KCl and had resistances between 0.5-3.0 M.OMEGA.. A plexiglass recording chamber (volume 200 μl) was constantly perfused at a rate of 10 ml/min. The recording chamber was connected to ground with a Ag/AgCl electrode directly, or through a 3M KCl agar bridge when extracellular chloride was varied. For low chloride solutions NaCl was replaced with equimolar concentrations of sodium isethionic acid. For low sodium solutions NaCl was replaced with equimolar KCl or choline Cl. Data were acquired and analyzed using PCLAMP with a TL-1 interface (Axon Instruments, Foster City, Calif.). Membrane current at a holding potential of -80 mV was recorded. The amplitude of drug-sensitive current was determined by subtracting the holding current at -80 mV from the peak current obtained in the presence of drug. Data were filtered at 30 Hz and sampled at 16.6 Hz. Current/voltage relationships (I/V) and reversal potentials (Erev) were determined using a 1-3 sec voltage ramp over the voltage range of -110 to +80 mV. For the ramps, data were filtered at 0.3-3 kHz and sampled at 160 Hz. Current in drug free solution was subtracted from current in the presence of drug to obtain drug-sensitive current/voltage relationships.
Oocytes were injected simultaneously with GluClα and GluClβ RNA
(25 pg each). n=at least four for each group. a- Data are expressed as %
acid. e- Block was considered zero if response in the presence of blocker
was ± 3% of control. f- (-)-Bicuculline methochloride g.

[2] = molecular target: T2, GluClβ (Caenorhabditis elegans, UniProt Q17328); experiment: Activation of current in Xenopus oocytes expressing homomeric GluClβ (voltage clamp); assay type: cell-based, C. elegans
T2 construct: the full-length open reading frame of the GluCl cDNA encoding the GluClα (52,550 kDa) and GluClβ (49,900kDa) subunits; expressed in transfected cells; host or cells: Xenopus laevis oocytes injected with in vitro RNA
T2 sequence (Q17328 23-434): T1 sequence (Q17328 23-434)
Method: as §1, §2
(§3) Electrophysiological properties were examined in oocytes injected with in vitro RNA from pGluClα and pGluClβ (FIG. 5).

[3] = molecular target: T3, GluClα (Caenorhabditis elegans, UniProt G5EBR3); experiment: Activation of current in Xenopus oocytes expressing homomeric GluClα (voltage clamp); assay type: cell-based, C. elegans; set-up: the full-length open reading frame of the GluCl cDNA encoding the GluClα (52,550 kDa) and GluClβ (49,900kDa) subunits; expressed in transfected cells; host or cells: Xenopus laevis oocytes injected with in vitro RNA
T3 sequence (G5EBR3 21-461): T1 sequence (G5EBR3 21-461)
Method: as §1, §2, §3

[4] = tested on: arthropod H-receptors; settings: cited from earlier work
[5] = molecular target: T1, GluCl α&β; experiment: Agonist activation of current in Xenopus oocytes injected with GluClα and GluClβ RNA (two-microelectrode voltage clamp); assay type: cell-based, C. elegans
Method: as §1, §2, §3
Several ligand-gated ion channel agonists and antagonists were tested on oocytes injected with GluCl α&β (Table 1). […] 255, 449-464 (1976); Arena, J. P., Liu, K. K., Paress, P. S., Schaeffer, J. M. & Cully, D. F. Mol. Brain Res. 15, 339-348 (1992); Lea, T. J. & Usherwood, P. N. R. Comp. Gen. Pharmacol. 4, 351-363 (1973)].

[6] = tested on: glutamate- and avermectin-sensitive chloride channel (C. elegans poly(A)+ RNA); settings: cited from earlier work
[7] = molecular target: T1, GluCl α&β; experiment: 3H-ivermectin equilibrium binding to GluCl α&β RNA injected oocytes; set-up: species or system C. elegans; settings: read-out: affinity of 3H-ivermectin binding; oocytes expressing GluCl α&β
Method: (§4) Oocytes injected with GluClα and GluClβ in vitro RNA were used in ^3 H-ivermectin and ^3 H-glutamate binding assays. GluClα (1 ng) or GluClβ RNA (1 ng) were injected into oocytes individually, or coinjected (0.5 ng each) and 2 days later the oocytes were disrupted with a dounce homogenizer and yolk proteins removed using standard methods known in the art. Equilibrium ligand binding assays were performed using conventional procedures. […] Oocytes expressing GluCl α&β are used to measure the affinity of binding of othere compounds and their ability to displace ^3 H-ivermectin and ^3 H-glutamate binding.

[8] = molecular target: T3, GluClα; experiment: 3H-ivermectin equilibrium binding to GluClα RNA injected oocytes; set-up: the full-length open reading frame of the GluCl cDNA encoding the GluClα (52,550 kDa) and GluClβ (49,900kDa) subunits; expressed in transfected cells; host or cells: Xenopus laevis oocytes injected with in vitro RNA; species or system C. elegans; settings: read-out: affinity of 3H-ivermectin binding; oocytes expressing GluClα
Method: as §4

[9] = molecular target: T3, GluClα; experiment: Permeability (reversal potential) of GluClα channels in oocytes; assay type: cell-based, C. elegans; set-up: homomeric channel; voltage clamp reversal potentials; settings: Erev in Na isothionate
Method: Xenopus laevis oocytes were prepared and injected using standard methods previously described and known in the art [Arena, J. P., Liu. K. K., Paress, P. S. & Cully. D. F. Mol. Pharmacol. 40, 368-374 (1991 ); Arena, J. P., Liu, K. K., Paress, P. S., Schaeffer, J. M. & Cully, D. F. Mol. Brain Res. 15, 339-348 (1992)]. Adult female Xenopus laevis were anesthetized with 0.17% tricaine methanesulfonate and the ovaries were surgically removed and placed in a dish consisting of (mM): NaCl 1 82.5, KCl 2. MgCl2 1, CaCl2 1.8, HEPES 5 adjusted to pH 7.5 with NaOH (OR-2). Ovarian lobes were broken open, rinsed several times, and gently shaken in OR-2 containing 0.2% collagenase (Sigma, Type 1A) for 2-5 hours. […]
Recordings were made at room temperature 2-10 days after injection. […] Data were acquired and analyzed using PCLAMP with a TL-1 interface (Axon Instruments, Foster City, Calif.). Membrane current at a holding potential of -80 mV was recorded. The amplitude of drug-sensitive current was determined by subtracting the holding current at -80 mV from the peak current obtained in the presence of drug. […] Current/voltage relationships (I/V) and reversal potentials (Erev) were determined using a 1-3 sec voltage ramp over the voltage range of -110 to +80 mV. […]

[10] = molecular target: T3, GluClα; experiment: 3H-glutamate equilibrium binding to GluClα injected oocyte membranes; set-up: the full-length open reading frame of the GluCl cDNA encoding the GluClα (52,550 kDa) and GluClβ (49,900kDa) subunits; expressed in transfected cells; host or cells: Xenopus laevis oocytes injected with in vitro RNA; species or system C. elegans; settings: membrane preparations from GluClα-injected oocytes
Method: as §4

Molecule: C[N+]1(C)CCc2cc3c(cc2C1C1OC(=O)c2c1ccc1c2OCO1)OCO3 (single isomer, unassigned; (-)) [Bicuculline, (-)-Bicuculline methochloride]
inhibition at 100 µM [1]: 0%

inhibition at 10 µM [1]: 0%
Molecule: N#Cc1cc2[nH]c(=O)c(=O)[nH]c2cc1[N+](=O)[O-] [CNQX, 6-cyano-7-nitroquino-xaline-2,3-dione]

inhibition at 200 µM ([1]; blocker 200 μM, ligand IVMPO4 1 μM): 60 ± 4%
Molecule: O=C(O)c1ccccc1Nc1cccc(C(F)(F)F)c1 [Flufenamic Acid]
block of glutamate- and IVMPO4-sensitive currents [1]: blocked; also recorded: low affinity block

Molecule: NCCCC(=O)O [GABA]
sensitivity of GluClβ homomeric channels [2]: insensitive | sensitivity of GluClα homomeric channels [3]: insensitive | effect on arthropod H-receptors [4]: not activated | activation of current / sensitivity of coexpressed GluCl α&β [5]: insensitivity

Molecule: NCC(=O)O [Glycine]
sensitivity of GluClβ homomeric channels [2]: insensitive | sensitivity of GluClα homomeric channels [3]: insensitive | activation of current / sensitivity of coexpressed GluCl α&β [5]: insensitivity

Molecule: NC(C(=O)O)c1cc(=O)[nH]o1 (stereo not shown) [Ibotenate]
effect on glutamate- and avermectin-sensitive current [6]: activated | effect on arthropod H-receptors [4]: activated | activation of current / sensitivity of coexpressed GluCl α&β [5]: direct activation of current | Emax at 500 µM ([5]; read-out: % of Glutamate 10 mM): 18 ± 2%

Molecule: O=C1C[C@@H]2OCC=C3CN4CC[C@]56c7ccccc7N1[C@H]5[C@H]2[C@H]3C[C@H]46 [Strychnine]
inhibition at 100 µM [1]: 0%

Molecule: CC[C@H](C)[C@H]1O[C@]2(CC[C@@H]1C)C[C@@H]1C[C@@H](C/C=C(\C)[C@@H](O[C@H]3C[C@H](OC)[C@@H](O[C@H]4C[C@H](OC)[C@@H](O)[C@H](C)O4)[C@H](C)O3)[C@@H](C)/C=C/C=C3\CO[C@@H]4[C@H](O)C(C)=C[C@@H](C(=O)O1)[C@]34O)O2 [^3 H-ivermectin, 22,23-dihydroavermectin B1a]
Kd [7]: ~0.2 nM | Kd [8]: ~0.2 nM

permeability ratio to chloride [9]: 0.2
Molecule: O=S(=O)(O)CCO [isothionate]

Molecule: Picrotoxin
block of glutamate- and IVMPO4-sensitive currents [1]: blocked; also recorded: low affinity block | % Block ([1]; ligand IVMPO4 1 μM): 61 ± 2% | % Block ([1]; ligand glutamate 1 mM, zero if within ± 3% of control): 68 ± 4% | effect on glutamate- and avermectin-sensitive current [6]: blocked with low affinity | effect on arthropod H-receptors [4]: blocked with low affinity

Molecule: ^3 H-glutamate
Specific 3H-glutamate binding [10]: observed
